From patent publication US7202085B2, “Control of gene expression in eukaryotic cells” (Calgene LLC, priority 1999, dated 2007)
“And” between values parts separate entries of the source, which are not always exact repeats. Equal entries are not always repeated.

Test system: VP16-TraR
Test: Transient GUS reporter assay in carrot protoplasts with VP16-TraR effector and tra box reporter
Type: cell-based, Agrobacterium tumefaciens
Conditions: Table 8: TraA8(4X) +TraR
Source text: Carrot protoplasts were transfected with the TraA8 (4×)-GUS reporter construct with the 35S-VP16-TraR activator gene and tested for GUS induction by application of wild type AHL and the various AHL analogs described in Example 8.

CCCCCCC(C(C)=O)C(=O)N[C@@H](CCO)C(=O)O (stereo partly drawn) [compound 26, N-(α-Hexyl-b-ketobutanoyl)-(S)-homoserine]
1, 2, 3 (replicate GUS activities at the lower concentration) (5 μM): 382.0 and 407.6 and 373.1
4, 5, 6 (replicate GUS activities at the higher concentration) (12.5 μM): 2145.8 and 1764.6 and 1527.0
1, 2, 3 (replicate GUS activities at the lower concentration) (25 μM): 1658.7 and 1300.7 and 1586.6
4, 5, 6 (replicate GUS activities at the higher concentration) (75 μM): 2585.3 and 3238.5 and 2815.8
